Laboratory results: patent EP4745130A1, “CRYSTAL FORMS OF TUBULIN-SRC DUAL-TARGETING INHIBITOR, PREPARATION METHOD THEREFOR AND USE THEREOF” (Hubei Bio-Pharmaceutical Industrial Technological Institute …, priority 2023, dated 2025)

Experiments:
[1] = Hygroscopicity test by dynamic vapor sorption (DVS); type: physicochemical; conditions: DVS, 25°C, 0%RH to 95%RH
Description: The dynamic vapor sorption (DVS) curve was collected on DVS IntrInsic from SMS (surface measurement systems). The relative humidity at 25°C was corrected using the deliquescence points of LiCl, Mg(NO3)2, and KCl. Table 18 DVS test parameters
The percentage change in sample mass was collected under constant temperature at 25°C as humidity varied from 0%RH to 95%RH.

[2] = Suspension competition test between free form crystal forms A and B; type: physicochemical; conditions: in words; at room temperature and 50°C, compared with the free form crystal form B
From the text: Table 24 Suspension competition test results between free form crystal forms A and B

[3] = Solid-state stability (XRPD and HPLC after open storage); type: physicochemical; conditions: for Crystal form: XRPD
Description: The purity test, dynamic solubility test, and stability test in the assay were measured using an Agilent 1260 high-performance liquid chromatograph, and the salt formation molar ratio of ions was tested by ion chromatography, and the analytical conditions are shown in Table 19 and Table 20. Table 19 High-performance liquid chromatography test conditions

[4] = Dynamic solubility experiment at 37°C (water, SGF, FaSSIF, FeSSIF); conditions: for S: solubility: solid feed 10 mg/mL; for pH: pH value of the filtrate
Description: Rotating mixing was carried out at 37°C at a solid feed concentration of 10 mg/mL (calculated as the compound of Formula I). […] After sampling at each time point, the samples were centrifuged (10000 rpm) and filtered (0.45 µm PTFE filter head), and the HPLC concentration and pH value of the filtrate were measured.
100 mg of NaCl and 50 mg of Triton X-100 were weighed into a 50 mL volumetric flask, and purified water was added to complete dissolution. 816 µL of 1 M hydrochloric acid was added thereto, and the pH was adjusted to 1.8 with 1 M hydrochloric acid or 1 M NaOH solution. Purified water was added to make up to volume.
340 mg of anhydrous NaH2PO4 and 620 mg of NaCl were weighed into a 100 mL volumetric flask. Purified water was added to complete dissolution, followed by addition of 55.44 µL of 50% NaOH solution, and the pH was adjusted to 6.5 using 1M HCl or 1M NaOH solution. Purified water was added to make up to volume. 110 mg of SIF powder was then weighed into a 50 mL volumetric flask, added with the above solution to complete dissolution and make up to volume.
0.82 mL of glacial acetic acid and 1.18 g of NaCl were added to a 100 mL volumetric flask. Purified water was added to complete dissolution, followed by addition of 528 µL of 50% NaOH solution, and the pH was adjusted to 5.0 using 1M HCl or 1M NaOH solution. Purified water was added to make up to volume. 560 mg of SIF powder was then weighed into a 50 mL volumetric flask, added with the above solution to complete dissolution and make up to volume.

hygroscopicity [1]: almost non-hygroscopic | Purity (area%) ([3]; 25°C/60%RH/open, 1 week): 96.76 area% | Relative to initial (%) ([3]; 25°C/60%RH/open, 1 week): 99.9% | Crystal form ([3]; 25°C/60%RH/open, 1 week): Free form crystal form A | Purity (area%) ([3]; 40°C/75%RH/open, 1 week): 96.70 area% | Relative to initial (%) ([3]; 40°C/75%RH/open, 1 week): 99.8% | Crystal form ([3]; 40°C/75%RH/open, 1 week): Free form crystal form A | Purity (area%) ([3]; Initial): 96.86 area% | S: solubility ([4]; FaSSIF, 1 hour, 60 min): 720 µg/mL | S: solubility ([4]; FaSSIF, 4 hours, 240 min): 700 µg/mL | S: solubility ([4]; FaSSIF, 24 hours, 1440 min): 630 µg/mL | S: solubility ([4]; FeSSIF, 1 hour, 60 min): 3460 µg/mL | S: solubility ([4]; FeSSIF, 4 hours, 240 min): 3740 µg/mL | S: solubility ([4]; FeSSIF, 24 hours, 1440 min): 3460 µg/mL | S: solubility ([4]; H2O, 1 hour, 60 min): 60 µg/mL | S: solubility ([4]; H2O, 4 hours, 240 min): 80 µg/mL | S: solubility ([4]; H2O, 24 hours, 1440 min): 60 µg/mL | S: solubility ([4]; SGF, 1 hour, 60 min): 6710 µg/mL | S: solubility ([4]; SGF, 4 hours, 240 min): 6770 µg/mL | S: solubility ([4]; SGF, 24 hours, 1440 min): 6610 µg/mL | pH ([4]; FaSSIF, 1 hour): 6.6 | pH ([4]; FaSSIF, 4 hours): 6.6 | pH ([4]; FaSSIF, 24 hours): 6.6 | pH ([4]; FeSSIF, 1 hour): 5.3 | pH ([4]; FeSSIF, 4 hours): 5.4 | pH ([4]; FeSSIF, 24 hours): 5.4 | pH ([4]; H2O, 1 hour): 8.6 | pH ([4]; H2O, 4 hours): 8.6 | pH ([4]; H2O, 24 hours): 8.5 | pH ([4]; SGF, 1 hour): 5.7 | pH ([4]; SGF, 4 hours): 5.8 | pH ([4]; SGF, 24 hours): 5.9
SMILES: Cc1cc(OCCN2C[C@H]3COC[C@H]3C2)ccc1-c1ccc(CC(=O)NCc2ccccc2)nc1 [Free form crystal form A]
thermodynamic stability [2]: thermodynamically more stable crystal form
